According to patent publication US8785430B2, “Compound that can inhibit UBC13-UEV interactions, pharmaceutical compositions and therapeutic uses” (Consejo Superior de Investigaciones Cientificas, priority 2006, dated 2014):

How the values were obtained:
UBC13-UEV1 = target: T1, UBC13-UEV1 (Homo sapiens, UniProt P61088); experiment: In vitro free polyubiquitin chain formation assay; assay type: biochemical
T1 construct: GST (N); made in house; host or cells: Escherichia coli BL21
T1 sequence (P61088 1-152): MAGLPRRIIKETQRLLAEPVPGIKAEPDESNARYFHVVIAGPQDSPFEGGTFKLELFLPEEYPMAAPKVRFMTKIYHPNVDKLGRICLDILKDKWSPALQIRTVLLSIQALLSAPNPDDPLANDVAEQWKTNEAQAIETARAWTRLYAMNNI
Method: As described in the Background, K63 type polyubiquitylation catalyzed by UBC13-UEV1 requires the interaction between both subunits of the heterodimer. […] In this assay, the formation of polyubiquitin chains in reactions containing 0.1 μM of E1 enzyme (Boston Biochem), 0.2 μM of UBC13, 0.2 μM of UEV1 (produced as described in Example 4), 117 μM of wild-type ubiquitin (Biomol UW8795) or mutated in all the lysines except the lysine in position 63 (ubiquitin K63) or in position 48 (ubiquitin K48; Boston Biochem), is allowed in a reaction buffer with 50 mM of Tris-HC at pH 7.6, 5 mM of MgCl2 and 0.5 mM of dithiothreitol. For the treatments with compound Ia (Varubin), UBC13 was pre-incubated for 10 minutes at room temperature with 100 μM of the compound before being added to the reaction. The reaction was initiated by means of adding 2 mM of ATP, and it was performed by means of incubating at 37° C. at different times, being stopped by means of adding Laemmli buffer (250 mM Tris-HCl, 10% SDS, 500 mM DTT, 0.5% bromophenol blue and 50% glycerol at pH 6.8) and boiling for 3 minutes. The samples were separated electrophoretically in polyacrylamide-SDS gels and transferred electrophoretically to PVDF membranes.

UBC13-UEV1 interaction = target: T2, UBC13-UEV1 interaction (Homo sapiens, UniProt P61088); experiment: Two-hybrid assay in yeasts for the UBC13-UEV1 interaction (β-galactosidase); assay type: cell-based; conditions: read-out: inhibition of the interaction between UBC13 and UEV1
T2 construct: expressed in transfected cells; host or cells: Saccharomyces cerevisiae strain AH109
T2 sequence (P61088 1-152): T1 sequence (P61088 1-152)
Excerpt: The interaction between UBC13 and UEV1 is detected by means of two-hybrid assays in yeast. The protein forms of UBC13 and UEV1 used in the following examples are of Homo sapiens. The UBC13 protein, also referred to as UBE2N (HUGO nomenclature) has the following identifiers: NCBI-GI: 4507793, UniProt: P61088 and [EC:6.3.2.19]. The UEV1 protein, also referred to as UBE2V1 (HUGO nomenclature), has the following identifiers: NCBI-GI: 73765546 and UniProt: {tilde under (O)}13404. In this assay, UBC13 is expressed as a fusion protein with the Gal4 DNA-binding domain (DBD-UBC13) from the plasmid pBD-UBC13, and UEV1 is expressed as a fusion protein with the Gal4 transcriptional activation domain (AD-UEV1) from the plasmid pACT2-UEV1. Both plasmids are cotransfected in the Saccharomyces cerevisiae strain AH109, being grown on plates with […] without leucine or tryptophan, selecting only the colonies expressing […] for these two amino acids, i.e., those containing the two co-transfected plasmids. […]

Compound	type of inhibition of the enzymatic activity of UBC13-UEV1 (UBC13-UEV1; 100 μM, slopes of the curves)	inhibition of polyubiquitylation with ubiquitin K63 as substrate (UBC13-UEV1; 100 μM, ubiquitin K63)	rate of generation of polyubiquitylated forms (UBC13-UEV1; UBC13 pre-incubated with 100 μM, wild-type ubiquitin)	inhibition at 100 µM (UBC13-UEV1 interaction)
NC(=O)CN(CCc1ccccn1)C(=O)C1CC(=O)N(CCc2ccc(F)cc2)CC(=O)N1CCc1ccc(F)cc1 (centres unmarked) [Ia, N-aminocarbamoylmethyl-N-(2′-(2″pyridyl)ethyl)-1,4-bis[2′-(4″-fluorophenyl)ethyl]-3,7-dioxo-[1,4]diazepane-5-carboxamide]	competitive type	efficiency similar to when the substrate is wild-type ubiquitin	lower rate of generation of polyubiquitylated forms	~60%
NC(=O)CN(CCc1ccccn1)C(=O)CC1C(=O)N(CCc2ccc(F)cc2)CC(=O)N1CCc1ccc(F)cc1 (centres unmarked) [Ib, 1,4-bis[2′-(4″-fluorophenyl)ethyl]-2-[N-aminocarbonylmethyl-N-(2′-(2″-pyridyl)ethyl)-carbonylmethyl]piperazine-3,6-dione]	–	–	–	~40%
